Source: US10730872B2, “Pesticidally active heterocyclic derivatives with sulphur containing sustitutents” (SYNGENTA PARTICIPATIONS AG, priority 2015, dated 2020)

Assays:
Assay type in all cases: in vivo
Plutella xylostella = Plutella xylostella (Diamond Back Moth); conditions: 120 h, application rate of 200 ppm, artificial diet, L2 larvae, 5 days after infestation, read-out: effect in at least one of the two categories (mortality or growth inhibition)
Description: (§1) 24-well microtiter plates with artificial diet were treated with aqueous test solutions prepared from 10,000 ppm DMSO stock solutions by pipetting. After drying, the plates were infested with L2 larvae (10 to 15 per well). The samples were assessed for mortality and growth inhibition in comparison to untreated samples 5 days after infestation.

Myzus persicae [1] = assay: Myzus persicae (Green Peach Aphid). Systemic Activity; conditions: 144 h, test rate of 24 ppm, roots of infested pea seedlings in test solution, 6 days
Description: Roots of pea seedlings infested with an aphid population of mixed ages were placed directly into aqueous test solutions prepared from 10,000 DMSO stock solutions. The samples were assessed for mortality 6 days after placing seedlings into test solutions.

Euschistus heros = Euschistus heros (Neotropical Brown Stink Bug); conditions: 120 h, application rate of 200 ppm, sprayed soybean leaves, N2 nymphs, 5 days after infestation, read-out: effect in at least one of the two categories (mortality or growth inhibition)
Description: Soybean leaves on agar in 24-well microtiter plates were sprayed with aqueous test solutions prepared from 10,000 ppm DMSO stock solutions. After drying the leaves were infested with N2 nymphs. The samples were assessed for mortality and growth inhibition in comparison to untreated samples 5 days after infestation.

Spodoptera littoralis = Spodoptera littoralis (Egyptian Cotton Leaf Worm), sprayed cotton leaf discs; conditions: foliar, 72 h, application rate of 200 ppm, L1 larvae, 3 days after infestation
Description: Cotton leaf discs were placed onto agar in 24-well microtiter plates and sprayed with aqueous test solutions prepared from 10,000 ppm DMSO stock solutions. After drying the leaf discs were infested with five L1 larvae. The samples were assessed for mortality, anti-feeding effect, and growth inhibition in comparison to untreated samples 3 days after infestation. Control of Spodoptera littoralis by a test sample is given when at least one of the categories mortality, anti-feedant effect, and growth inhibition is higher than the untreated sample.

Myzus persicae [2] = assay: Myzus persicae (Green Peach Aphid): Feeding/Contact Activity; conditions: foliar, 144 h, application rate of 200 ppm, sprayed sunflower leaf discs, aphid population of mixed ages, 6 days after infestation
Description: Sunflower leaf discs were placed onto agar in a 24-well microtiter plate and sprayed with aqueous test solutions prepared from 10,000 ppm DMSO stock solutions. After drying, the leaf discs were infested with an aphid population of mixed ages. The samples were assessed for mortality 6 days after infestation.

Bemisia tabaci = Bemisia tabaci (Cotton White Fly): Feeding/Contact Activity; conditions: foliar, 144 h, application rate of 200 ppm, sprayed cotton leaf discs, adult white flies, 6 days after incubation
Description: Cotton leaf discs were placed on agar in 24-well microtiter plates and sprayed with aqueous test solutions prepared from 10,000 ppm DMSO stock solutions. After drying the leaf discs were infested with adult white flies. The samples were checked for mortality 6 days after incubation.

Diabrotica balteata = Diabrotica balteata (Corn Root Worm); conditions: 96 h, application rate of 200 ppm, sprayed maize sprouts, L2 larvae, 4 days after infestation, read-out: effect in at least one of the two categories (mortality or growth inhibition)
Description: as §1, with “Maize sprouts placed onto an agar layer in 24-well” for “24-well”, “plates” for “plates with artificial diet”, “spraying.” for “pipetting.”, “(6” for “(10”, “10” for “15”, “4” for “5”

CCn1c(C(F)(F)F)cc2nc(-c3ncc(C(=O)N(C)C4CC4)cc3S(=O)(=O)CC)n(C)c2c1=O [Compound A17, N-cyclopropyl-6-[5-ethyl-3-methyl-4-oxo-6-(trifluoromethyl)imidazo[4,5-c]pyridin-2-yl]-5-ethylsulfonyl-N-methyl-pyridine-3-carboxamide]
≥ 80%: percent effect (mortality or growth inhibition) at 200 ppm (Plutella xylostella) | mortality at 24 ppm (Myzus persicae [1]) | percent effect (mortality or growth inhibition) at 200 ppm (Euschistus heros)

CCn1c(C(F)(F)F)cc2nc(-c3nc(C(=O)N(C)C4CC4)ccc3S(=O)(=O)CC)n(C)c2c1=O [Compound A18, N-cyclopropyl-6-[5-ethyl-3-methyl-4-oxo-6-(trifluoromethyl)imidazo[4,5-c]pyridin-2-yl]-5-ethylsulfonyl-N-methyl-pyridine-2-carboxamide]
≥ 80%: percent effect (mortality or growth inhibition) at 200 ppm (Plutella xylostella) | percent control (mortality, anti-feeding effect or growth inhibition) at 200 ppm (Spodoptera littoralis) | mortality at 200 ppm (Myzus persicae [2]) | mortality at 24 ppm (Myzus persicae [1]) | mortality at 200 ppm (Bemisia tabaci)

CCn1c(C(F)(F)F)cc2nc(-c3ncc(N(C)N(C)C(=O)C4CC4)cc3S(=O)(=O)CC)n(C)c2c1=O [Compound A22, N′-[6-[5-ethyl-3-methyl-4-oxo-6-(trifluoromethyl)imidazo[4,5-c]pyridin-2-yl]-5-ethylsulfonyl-3-pyridyl]-N,N′-dimethyl-cyclopropanecarbohydrazide]
≥ 80%: percent effect (mortality or growth inhibition) at 200 ppm (Plutella xylostella) | percent control (mortality, anti-feeding effect or growth inhibition) at 200 ppm (Spodoptera littoralis) | mortality at 24 ppm (Myzus persicae [1]) | percent effect (mortality or growth inhibition) at 200 ppm (Euschistus heros)

CCn1c(C(F)(F)F)cc2nc(-c3ncc(C(=O)NC4(C#N)CC4)cc3S(=O)(=O)CC)n(C)c2c1=O [Compound A25, N-(1-cyanocyclopropyl)-6-[5-ethyl-3-methyl-4-oxo-6-(trifluoromethyl)imidazo[4,5-c]pyridin-2-yl]-5-ethylsulfonyl-pyridine-3-carboxamide]
≥ 80%: percent control (mortality, anti-feeding effect or growth inhibition) at 200 ppm (Spodoptera littoralis) | percent effect (mortality or growth inhibition) at 200 ppm (Euschistus heros)

CCn1c(C(F)(F)F)cc2nc(-c3ncc(N(C)/C=N/OC)cc3S(=O)(=O)CC)n(C)c2c1=O [Compound A27, N-[6-[5-ethyl-3-methyl-4-oxo-6-(trifluoromethyl)imidazo[4,5-c]pyridin-2-yl]-5-ethylsulfonyl-3-pyridyl]-N′-methoxy-N-methyl-formamidine]
≥ 80%: percent effect (mortality or growth inhibition) at 200 ppm (Plutella xylostella) | percent control (mortality, anti-feeding effect or growth inhibition) at 200 ppm (Spodoptera littoralis)

CCn1c(C(F)(F)F)cc2nc(-c3ncc(C(=O)NCC#N)cc3S(=O)(=O)CC)n(C)c2c1=O [Compound A28, N-(cyanomethyl)-6-[5-ethyl-3-methyl-4-oxo-6-(trifluoromethyl)imidazo[4,5-c]pyridin-2-yl]-5-ethylsulfonyl-pyridine-3-carboxamide]
≥ 80%: percent effect (mortality or growth inhibition) at 200 ppm (Plutella xylostella) | mortality at 200 ppm (Myzus persicae [2]) | mortality at 24 ppm (Myzus persicae [1]) | percent effect (mortality or growth inhibition) at 200 ppm (Euschistus heros)

CCn1c(C(F)(F)F)cc2nc(-c3nc(N(C)CC(F)(F)F)ccc3S(=O)(=O)CC)n(C)c2c1=O [Compound A33]
≥ 80%: effect mortality or growth inhibition at 200 ppm (Diabrotica balteata) | percent effect (mortality or growth inhibition) at 200 ppm (Plutella xylostella) | percent control (mortality, anti-feeding effect or growth inhibition) at 200 ppm (Spodoptera littoralis)

CCn1c(C(F)(F)F)cc2nc(-c3ncc(NS(=O)(=O)C4CC4)cc3S(=O)(=O)CC)n(C)c2c1=O [Compound A36, N-[6-[5-ethyl-3-methyl-4-oxo-6-(trifluoromethyl)imidazo[4,5-c]pyridin-2-yl]-5-ethylsulfonyl-3-pyridyl]cyclopropanesulfonamide]
≥ 80%: mortality at 200 ppm (Myzus persicae [2])

CCn1c(C(F)(F)F)cc2nc(-c3ncc(N(C)S(=O)(=O)C4CC4)cc3S(=O)(=O)CC)n(C)c2c1=O [Compound A37, N-[6-[5-ethyl-3-methyl-4-oxo-6-(trifluoromethyl)imidazo[4,5-c]pyridin-2-yl]-5-ethylsulfonyl-3-pyridyl]-N-methyl-cyclopropanesulfonamide]
≥ 80%: effect mortality or growth inhibition at 200 ppm (Diabrotica balteata) | percent effect (mortality or growth inhibition) at 200 ppm (Plutella xylostella) | percent control (mortality, anti-feeding effect or growth inhibition) at 200 ppm (Spodoptera littoralis) | mortality at 200 ppm (Bemisia tabaci) | percent effect (mortality or growth inhibition) at 200 ppm (Euschistus heros)

CCS(=O)(=O)c1ccc(NOC)nc1-c1nc2cc(C(F)(F)F)n(C3CC3)c(=O)c2n1C [Compound A46, 5-cyclopropyl-2-[3-ethylsulfonyl-6-(methoxyamino)-2-pyridyl]-3-methyl-6-(trifluoromethyl)imidazo[4,5-c]pyridin-4-one]
≥ 80%: effect mortality or growth inhibition at 200 ppm (Diabrotica balteata) | percent effect (mortality or growth inhibition) at 200 ppm (Plutella xylostella) | percent control (mortality, anti-feeding effect or growth inhibition) at 200 ppm (Spodoptera littoralis) | percent effect (mortality or growth inhibition) at 200 ppm (Euschistus heros)

CCS(=O)(=O)c1cc(C)c(N)nc1-c1nc2cc(C(F)(F)F)n(C3CC3)c(=O)c2n1C [Compound A49, 2-(6-amino-5-methyl-3-ethylsulfonyl-2-pyridyl)-5-cyclopropyl-3-methyl-6-(trifluoromethyl)imidazo[4,5-c]pyridin-4-one]
≥ 80%: effect mortality or growth inhibition at 200 ppm (Diabrotica balteata) | percent effect (mortality or growth inhibition) at 200 ppm (Plutella xylostella) | percent control (mortality, anti-feeding effect or growth inhibition) at 200 ppm (Spodoptera littoralis) | mortality at 200 ppm (Myzus persicae [2]) | mortality at 24 ppm (Myzus persicae [1]) | mortality at 200 ppm (Bemisia tabaci)

CCn1c(C(F)(F)F)cc2nc(-c3nc(Br)c(N)cc3S(=O)(=O)CC)n(C)c2c1=O [Compound A54, 2-(5-amino-6-bromo-3-ethylsulfonyl-2-pyridyl)-5-ethyl-3-methyl-6-(trifluoromethyl)imidazo[4,5-c]pyridin-4-one]
≥ 80%: effect mortality or growth inhibition at 200 ppm (Diabrotica balteata) | percent effect (mortality or growth inhibition) at 200 ppm (Plutella xylostella) | percent control (mortality, anti-feeding effect or growth inhibition) at 200 ppm (Spodoptera littoralis)

CCn1c(C(F)(F)F)cc2nc(-c3ncc(NC(=O)C4(C#N)CC4)cc3S(=O)(=O)CC)n(C)c2c1=O [Compound A55, 1-cyano-N-[6-[5-ethyl-3-methyl-4-oxo-6-(trifluoromethyl)imidazo[4,5-c]pyridin-2-yl]-5-ethylsulfonyl-3-pyridyl]cyclopropanecarboxamide]
≥ 80%: percent effect (mortality or growth inhibition) at 200 ppm (Plutella xylostella) | percent control (mortality, anti-feeding effect or growth inhibition) at 200 ppm (Spodoptera littoralis) | mortality at 200 ppm (Myzus persicae [2]) | mortality at 24 ppm (Myzus persicae [1])

CCn1c(C(F)(F)F)cc2nc(-c3ncc(NC4(C#N)CC4)cc3[S+]([O-])CC)n(C)c2c1=O (centres unmarked) [Compound A57, 1-[[6-[5-ethyl-3-methyl-4-oxo-6-(trifluoromethyl)imidazo[4,5-c]pyridin-2-yl]-5-ethylsulfinyl-3-pyridyl]amino]cyclopropanecarbonitrile]
≥ 80%: effect mortality or growth inhibition at 200 ppm (Diabrotica balteata) | percent effect (mortality or growth inhibition) at 200 ppm (Plutella xylostella) | percent control (mortality, anti-feeding effect or growth inhibition) at 200 ppm (Spodoptera littoralis)

CCn1c(C(F)(F)F)cc2nc(-c3ncc(NC4CC4)cc3[S+]([O-])CC)n(C)c2c1=O (centres unmarked) [Compound A58, 2-[5-(cyclopropylamino)-3-ethylsulfinyl-2-pyridyl]-5-ethyl-3-methyl-6-(trifluoromethyl)imidazo[4,5-c]pyridin-4-one]
≥ 80%: effect mortality or growth inhibition at 200 ppm (Diabrotica balteata)

CCS(=O)(=O)c1ccc(NC(=O)OC(C)(C)C)nc1-c1nc2cc(C(F)(F)F)n(C3CC3)c(=O)c2n1C [Compound A63, Tert-butyl N-[6-[5-cyclopropyl-3-methyl-4-oxo-6-(trifluoromethyl)imidazo[4,5-c]pyridin-2-yl]-5-ethylsulfonyl-2-pyridyl]carbamate]
≥ 80%: effect mortality or growth inhibition at 200 ppm (Diabrotica balteata) | percent effect (mortality or growth inhibition) at 200 ppm (Plutella xylostella) | percent control (mortality, anti-feeding effect or growth inhibition) at 200 ppm (Spodoptera littoralis) | mortality at 200 ppm (Bemisia tabaci)

CCn1c(C(F)(F)F)cc2nc(-c3nc(C(C)=O)ccc3S(=O)(=O)CC)n(C)c2c1=O [Compound A70, 2-(6-acetyl-3-ethylsulfonyl-2-pyridyl)-5-ethyl-3-methyl-6-(trifluoromethyl)imidazo[4,5-c]pyridin-4-one]
≥ 80%: percent effect (mortality or growth inhibition) at 200 ppm (Plutella xylostella)

CCn1c(C(F)(F)F)cc2nc(-c3nc(N)c(C#N)cc3S(=O)(=O)CC)n(C)c2c1=O [Compound A72]
≥ 80%: percent effect (mortality or growth inhibition) at 200 ppm (Plutella xylostella) | percent control (mortality, anti-feeding effect or growth inhibition) at 200 ppm (Spodoptera littoralis) | mortality at 24 ppm (Myzus persicae [1]) | percent effect (mortality or growth inhibition) at 200 ppm (Euschistus heros)
